According to patent publication US11202791B2, “Compositions containing tannic acids and uses thereof” (SyneuRx International (Taiwan) Corp., priority 2016, dated 2021):

Columns and labels:
Format in all cases: in vivo, C57BL/6J male mice
MK-801 treated mice [1] = assay: Open field, MK-801-induced hyper-locomotion
Method: Each mouse in Groups 2-6 received an acute administration of MK-801 (Sigma-Aldrich, USA) dissolved in normal saline, 0.1 mg/kg, i.p.) 20 minutes prior to the behavioral tests. Each mouse in Groups 3-6 received an acute administration of tannic acids (Sigma-Aldrich, USA; dissolved in PBS, 10, 15, 20 or 30 mg/kg, i.p.) 20 minutes prior to the MK-801 administration.
(§1) Each mouse in Groups 2-5 received an acute administration of MK-801 (Sigma-Aldrich, USA) dissolved in normal saline, 0.1 mg/kg for open field and Barnes maze tasks, and 0.2 mg/kg for prepulse inhibition and sucrose preference tasks by i.p. injection) 20 minutes prior to the behavioral tests. Each mouse in Groups 3-6 received an acute oral administration of tannic acids (Merck Millipore, Germany; dissolved in PBS, 10, 30, or 100 mg/kg, p.o.) 20 minutes prior to the MK-801 administration.
Each mouse in Groups 2-5 received an acute administration of 0.2 mg/kg MK-801 (Sigma-Aldrich, USA) dissolved in normal saline by i.p. injection 20 minutes prior to the locomotion activity test. […]
The open field task is a common measurement of novelty induced exploratory behavior and general activity in both mice and rats. […] Their spontaneous locomotor activities were measured for 30 minutes using the SMART video tracking system (Panlab, Harvard Apparatus). The travel distance of each mouse was measured as an index of locomotion activity.

MK-801 treated mice [2] = assay: Sucrose preference (anhedonia) in MK-801 treated mice; settings: MK-801 alone 0.2 mg/kg i.p.
Method: as §1
Sucrose preference test has been commonly examined in mouse models of several mental illnesses, including, but not limited to, depression, major depression disorder, anhedonia, negative symptoms of schizophrenia, chronic mild and unpredictable stress (see Anderson et al., 2006; Carvalho et al., 2013; Briones et al., 2011; Der-Avakian and Markou, 2012; Tye et al., 2013; Edwards and Koob, 2012; Brigman et al., 2010; Koo and Duman, 2007; Nestler and Hyman, 2010; Overstreet, 2012; Papp et al., 1991; Santiago et al., 2010; Skalisz et al., 2002; Szczypka et al., 2001; Taylor et al., 2010; Vardigan et al., 2010; Willner et al., 1987; You et al., 2011).

MK-801 treated mice [3] = assay: Prepulse inhibition in MK-801-treated mice

For C[C@]12N[C@H](Cc3ccccc31)c1ccccc12 [MK-801, dizocilpine], the “locomotion activity vs control group” value (MK-801 treated mice [1]; MK-801 alone 0.1 mg/kg i.p. (Example 3)) was “hyper-locomotion activity”, the “locomotion activity vs control group” value (MK-801 treated mice [1]; MK-801 alone 0.2 mg/kg i.p. (Example 9)) was “hyper-locomotion activity” and the “preference toward the sucrose solution (2%) vs control group” value (MK-801 treated mice [2]) was “did not show the preference toward the sucrose solution”. For the same molecule, the “prepulse inhibition vs control group” value (MK-801 treated mice [3]; MK-801 alone 0.2 mg/kg i.p. (Example 4)) was “robust prepulse inhibition deficits” and the “prepulse inhibition vs control group” value (MK-801 treated mice [3]; MK-801 alone 0.3 mg/kg i.p., all prepulse intensities (Example 9)) was “robust prepulse inhibition deficits”.
